# Where a SMILES comes first, the peptide text is derived from it. Bridges are numbered along the chain shown (N, C = ends). [ ]: non-standard residue; d: D form. R8 = C=CCCCCCC[C@@](C)(N)C(=O)O; S5 = C=CCCC[C@](C)(N)C(=O)O
# Experiments:
# [1] = system: circulating CD34+ leukemic blasts; experiment: Compassionate-use treatment of one MDS/AML patient; type: in vivo, human
# primary AML cells = experiment: Viability, CFC and apoptosis of primary AML patient cells; type: cell-based, human; conditions: AML n = 4 compared to healthy controls n = 3
# [2] = system: Kasumi-1 (p53 R248Q mutant)
# SJSA-1 cells [3] = experiment: p21 protein ELISA in SJSA-1 cells; type: cell-based, human; conditions: 21 hours after treatment, n = 2
# [4] = system: p53 WT AML cells (primary AML cells, MOLM13); experiment: p53 pathway activation; type: cell-based, human
# [5] = system: leukemia cell lines with WT p53; experiment: Cytotoxicity assay in leukemia cell lines with WT p53; conditions: five cell lines with WT p53; table S2
# HL60 (p53 null) = experiment: Proliferation and apoptosis in HL60; type: cell-based, human
# [6] = system: p53 WT AML cell lines (MOLM13, MOLM14, ML2, OCI/AML3, OCI/AML5); experiment: Proliferation by trypan blue exclusion, p53 WT AML cell lines; type: cell-based, human
# ML2 cells = experiment: ML2 AML xenograft in mice; type: in vivo, mouse; conditions: vehicle 28.5
# p53 WT AML cell lines = experiment: Cell cycle; type: cell-based, human
# [7] = clinical trials; cited from earlier work
# [8] = system: healthy hematopoietic cells; experiment: Effects on healthy hematopoiesis in non-tumor-bearing C57/BL6 mice; type: in vivo, mouse; conditions: 20 mg/kg TIW for 4 weeks
# MOLM13 cells = experiment: MOLM13 AML xenograft in NSG mice; type: in vivo, mouse; conditions: for median survival: vehicle 34
# U2OS p21-MS2 cells = experiment: Live-cell imaging of p21-MS2 transcription sites; conditions: 5 μM, 4 hours after addition; 54 treated cells; untreated 16%
# SJSA-1 cells [9] = experiment: Caspase-Glo 3/7 assay in SJSA-1 cells; type: cell-based, human; conditions: Caspase-Glo 3/7, 48 hours after treatment; n = 2
# AML cell lines = experiment: Colony-forming capacity and serial replating of AML cell lines
# [10] = system: MOLM13 p53 shRNA knockdown cell lines; experiment: Proliferation and apoptosis in isogenic p53 shRNA MOLM13 cell lines; type: cell-based, human; conditions: n = 3
# patient's MDS/AML cells = experiment: In vitro treatment of the MDS/AML patient's cells; type: cell-based, human
# MDMX [11] = experiment: MDMX expression in AML cells; conditions: mRNA and protein levels
# [12] = cited from earlier work
# MDMX [13] = conditions: cited from earlier work
# MDMX [14] = biological target: T1, MDMX (Homo sapiens, UniProt O15151); experiment: Binding assay on immobilized protein surface; conditions: n = 2
# T1 sequence (O15151 1-490): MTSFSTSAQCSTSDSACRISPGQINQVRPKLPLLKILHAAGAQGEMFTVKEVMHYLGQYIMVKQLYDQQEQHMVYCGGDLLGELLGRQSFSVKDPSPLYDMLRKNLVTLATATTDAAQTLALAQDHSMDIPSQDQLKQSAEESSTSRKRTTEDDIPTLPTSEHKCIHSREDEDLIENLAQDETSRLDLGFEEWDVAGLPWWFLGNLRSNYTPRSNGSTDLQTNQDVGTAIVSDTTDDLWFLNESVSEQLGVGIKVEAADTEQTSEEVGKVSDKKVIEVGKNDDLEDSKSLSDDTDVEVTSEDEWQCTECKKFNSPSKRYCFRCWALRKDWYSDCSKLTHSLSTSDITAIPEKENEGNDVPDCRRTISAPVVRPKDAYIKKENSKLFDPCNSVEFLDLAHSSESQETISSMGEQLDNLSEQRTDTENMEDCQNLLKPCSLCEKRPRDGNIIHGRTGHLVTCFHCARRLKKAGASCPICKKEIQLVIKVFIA
# MDM2 = MDM2 (Homo sapiens, UniProt Q00987); experiment: Binding assay on immobilized protein surface; conditions: n = 2
# Sequence of MDM2 (Q00987 whole entry): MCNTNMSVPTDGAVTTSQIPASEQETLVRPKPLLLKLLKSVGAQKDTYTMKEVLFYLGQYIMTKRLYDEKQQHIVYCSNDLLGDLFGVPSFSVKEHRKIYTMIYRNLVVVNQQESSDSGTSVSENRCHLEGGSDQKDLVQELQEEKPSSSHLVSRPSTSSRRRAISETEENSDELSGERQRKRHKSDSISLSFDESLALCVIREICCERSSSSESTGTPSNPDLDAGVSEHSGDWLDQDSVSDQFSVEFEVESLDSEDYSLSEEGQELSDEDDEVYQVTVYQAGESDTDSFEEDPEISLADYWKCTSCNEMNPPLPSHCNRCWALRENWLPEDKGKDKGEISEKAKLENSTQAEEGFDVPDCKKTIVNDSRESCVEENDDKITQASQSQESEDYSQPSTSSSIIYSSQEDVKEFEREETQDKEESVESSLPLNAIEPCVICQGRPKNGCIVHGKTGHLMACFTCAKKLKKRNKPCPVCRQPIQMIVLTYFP
smiles,measurement,setting,value
CC(=O)N[C@@H](CC(C)C)C(=O)N[C@H](C(=O)N[C@@H](Cc1ccccc1)C(=O)N[C@]1(C)CCCCCC/C=C\CCC[C@@](C)(C(=O)N[C@@H](C)C(=O)N[C@@H](C)C(=O)N[C@@H](C)C(=O)N[C@@H](C)C(=O)N[C@@H](C)C(=O)N[C@H](C)C(N)=O)NC(=O)[C@H](CC(C)C)NC(=O)[C@H](CCC(N)=O)NC(=O)[C@H](C)NC(=O)[C@H](Cc2c[nH]c3ccccc23)NC(=O)[C@H](Cc2ccc(O)cc2)NC(=O)[C@H](CCC(=O)O)NC1=O)[C@@H](C)O [ALRN-6924] (Ac-LTF[R8]EYWAQL[S5]AAAAA[dA]-NH2; staple (Z) 4-11; N-terminus and C-terminus assumed),thrombocytopenia on treatment,"[1]; 3.1 mg/kg IV once weekly, one patient",no grade 3 or 4 thrombocytopenia was observed
same,circulating CD34+ leukemic blasts,"[1]; 3.1 mg/kg IV once weekly, weeks 2 and 3",less than 1%
same,circulating CD34+ leukemic blasts,"[1]; 3.1 mg/kg IV once weekly, within 12 hours, initially 5 to 7%",1.5 to 2.5%
same,p53 protein (intracellular FACS),"[1]; 3.1 mg/kg IV, first administration","rapidly induced in CD34^+ leukemic blasts, but not in healthy lymphocytes"
same,CFC of primary AML PBMCs,primary AML cells,inhibited CFC
same,cell proliferation,[2],no effect on cell proliferation
same,p21 protein,SJSA-1 cells [3],concentration- dependent increase
same,p53 target gene expression (qRT-PCR),"[4]; MOLM13, 24 hours of treatment, n = 3","up-regulated CDKN1A, MDM2, BAX, PUMA, and GADD45a in a dose-dependent manner"
same,"p53, p21 and MDM2 protein","[4]; Western blot, primary AML cells and AML cell lines expressing WT p53, not in p53 null AML cells",stabilized p53 and up-regulated its downstream targets p21 and MDM2 in p53 WT cells in a dose-dependent manner
same,cytotoxic activity,[5],potent activity against all five cell lines with WT p53
same,cell proliferation,HL60 (p53 null); HL60 (p53 null),no effect on cell proliferation
same,apoptosis,"HL60 (p53 null); HL60, doses between 5 and 10 μM",did not observe a significant increase in apoptosis
same,sensitivity of OCI/AML3,"[6]; OCI/AML3, suspension culture",less sensitive
same,cellular proliferation,"[6]; trypan blue exclusion, dose- and time-dependent, n = 3",inhibited cellular proliferation
same,average median survival,ML2 cells; 20 mg/kg IV BIW,38 days
same,average median survival,ML2 cells; 20 mg/kg IV TIW,72 days
same,apoptosis,"p53 WT AML cell lines; annexin V/DAPI, 24 hours, all five AML cell lines, n = 3",dose-dependent increase in apoptosis
same,cell cycle,"p53 WT AML cell lines; propidium iodide staining, all p53 WT AML cell lines",induced cell cycle arrest
same,grade 3/4 thrombocytopenias,[7],no reported grade 3/4 thrombocytopenias
same,frequency of HSCs and progenitors versus control,[8],no significant differences
same,thrombocytopenia (platelet counts),[8]; n = 10,did not show signs of thrombocytopenia
same,neutrophils,"[8]; n = 10, within the normal range",only a modest reduction in neutrophils
same,median survival,MOLM13 cells; 20 mg/kg IV BIW (group 2),83 days
same,mice alive 300 days after treatment,MOLM13 cells; 20 mg/kg IV TIW (group 3),40%
same,median survival,MOLM13 cells; 20 mg/kg IV TIW (group 3),151 days
same,average engraftment of human CD45 leukemic cells,"MOLM13 cells; 20 mg/kg, after 5 weeks of treatment, mouse BM, FACS, vehicle 23.3%",0.00557%
same,increase of median survival compared to the control,MOLM13 cells; 8 or 12 mg/kg IV BIW,5.5 days
same,human CD45 leukemic cells in the BM,"MOLM13 cells; 8 or 12 mg/kg IV BIW, day 7 after the start of treatment",dose-dependent decrease in human CD45 leukemic cells
same,proportion of cells harboring an active TS,U2OS p21-MS2 cells,~ 44%
same,caspase-3/7 activity,SJSA-1 cells [9],concentration- dependent increase
same,colony-forming capacity (CFC),"AML cell lines; 0.5 pM (so in the source), methylcellulose, 10 days, n = 3",abrogated the colony-forming capacity
same,serial replating capacity,"AML cell lines; 0.5 μM, three of the five AML cell lines",completely abrogated serial replating capacity
same,potency in CFC and serial replating assays versus comparators,AML cell lines; AML cell lines,increased potency over RG7388 and all other p53- stapled peptide prototypes tested
same,inhibition of clonogenicity versus RG7388,AML cell lines; all five AML cell lines,greater inhibition of clonogenicity compared to RG7388
same,p53 dependency of growth inhibition and apoptosis,[10],completely p53-dependent manner
same,AML-inhibitory effect versus RG7388,patient's MDS/AML cells; 10 μM each,greater AML-inhibitory effect than RG7388
same,cell proliferation and clonogenic capacity of the patient's MDS/AML cells,"patient's MDS/AML cells; 10 μM in liquid culture, CFC 10 days",inhibited cell proliferation and clonogenic capacity
CN1CCN(c2ccc([N+](=O)[O-])c3no[n+]([O-])c23)CC1 [NSC-207895],expression of MDMX,MDMX [11],downregulated expression of MDMX
COc1ccc(C2=N[C@@H](c3ccc(Cl)cc3)[C@@H](c3ccc(Cl)cc3)N2C(=O)N2CCNC(=O)C2)c(OC(C)C)c1 [Nutlin-3],bioavailability,[12],poor bioavailability
CCOc1cc(C(C)(C)C)ccc1C1=N[C@@](C)(c2ccc(Cl)cc2)[C@@](C)(c2ccc(Cl)cc2)N1C(=O)N1CCN(CCCS(C)(=O)=O)CC1 [RG7112],affinity for MDMX,MDMX [13],lack of affinity for MDMX
COc1cc(C(=O)O)ccc1NC(=O)[C@@H]1N[C@@H](CC(C)(C)C)[C@](C#N)(c2ccc(Cl)cc2F)[C@H]1c1cccc(Cl)c1F [RG7388],affinity for MDMX,MDMX [13],lack of affinity for MDMX
same,binding to MDMX,MDMX [14],did not bind to MDMX at all
same,wash-off t1/2 from MDM2-coated surface,MDM2,2 to 3 min

# From publication PMC6130841 (Science translational medicine, 2018)
